This passage reports Ratio IC50 and IC50 results from ChEMBL document CHEMBL5523684, “Development of a tetrahydroindazolone-based HDAC6 inhibitor with in-vivo anti-arthritic activity” (Bioorg Med Chem, 2024).

Structures are written as SMILES.

The species named for test [1] is Homo sapiens. Briefly: Selectivity index, ratio of IC50 for inhibition of his-tagged human recombinant HDAC1 using fluor de lys-SIRT1 as substrate to IC50 for inhibition of N-terminal GST-tagged human recombinant HDAC6 expressed in Spodoptera frugiperda.
Test [2] addresses T1, Protein deacetylase HDAC6 (Homo sapiens, UniProt Q9UBN7).
T1 sequence (Q9UBN7 whole entry): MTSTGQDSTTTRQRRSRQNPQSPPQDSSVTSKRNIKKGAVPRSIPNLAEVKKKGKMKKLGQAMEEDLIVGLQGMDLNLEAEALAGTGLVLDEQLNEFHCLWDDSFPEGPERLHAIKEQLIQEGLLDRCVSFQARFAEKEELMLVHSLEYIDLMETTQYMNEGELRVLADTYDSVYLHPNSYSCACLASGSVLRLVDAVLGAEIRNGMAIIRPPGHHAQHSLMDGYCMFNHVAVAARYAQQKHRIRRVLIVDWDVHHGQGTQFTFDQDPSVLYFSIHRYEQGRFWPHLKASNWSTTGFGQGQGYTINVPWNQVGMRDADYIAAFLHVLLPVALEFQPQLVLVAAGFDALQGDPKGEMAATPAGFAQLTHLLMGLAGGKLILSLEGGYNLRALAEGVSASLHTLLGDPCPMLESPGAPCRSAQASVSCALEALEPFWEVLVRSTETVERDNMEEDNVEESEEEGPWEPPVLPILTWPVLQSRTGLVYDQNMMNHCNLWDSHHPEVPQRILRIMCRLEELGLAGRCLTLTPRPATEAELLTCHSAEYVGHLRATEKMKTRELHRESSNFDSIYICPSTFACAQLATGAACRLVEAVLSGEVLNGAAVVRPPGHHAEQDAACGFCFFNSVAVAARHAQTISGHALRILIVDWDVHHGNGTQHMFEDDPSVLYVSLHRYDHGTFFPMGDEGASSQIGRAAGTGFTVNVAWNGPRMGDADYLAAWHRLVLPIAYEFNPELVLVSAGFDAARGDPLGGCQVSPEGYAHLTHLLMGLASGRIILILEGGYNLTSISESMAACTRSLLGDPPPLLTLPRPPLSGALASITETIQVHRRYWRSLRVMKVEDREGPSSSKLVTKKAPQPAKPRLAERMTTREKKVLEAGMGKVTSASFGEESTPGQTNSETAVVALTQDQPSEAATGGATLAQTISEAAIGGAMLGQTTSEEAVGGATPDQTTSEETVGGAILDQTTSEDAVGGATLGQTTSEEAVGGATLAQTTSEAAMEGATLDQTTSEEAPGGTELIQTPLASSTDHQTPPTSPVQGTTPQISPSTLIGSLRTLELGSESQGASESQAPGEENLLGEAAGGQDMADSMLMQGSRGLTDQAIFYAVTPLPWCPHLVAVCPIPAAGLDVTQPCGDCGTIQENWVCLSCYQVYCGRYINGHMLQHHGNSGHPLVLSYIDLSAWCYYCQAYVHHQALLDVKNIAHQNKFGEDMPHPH
Briefly: Inhibition of N-terminal GST-tagged human recombinant HDAC6 expressed in Spodoptera frugiperda incubated for 60 mins by fluorescence based analysis.

Test [3] addresses T2, Histone deacetylase 1 (Homo sapiens, UniProt Q13547). Nature of the test: Inhibition of his-tagged human recombinant HDAC1 using fluor de lys-SIRT1 as substrate incubated for 60 mins by fluorescence based analysis.
Test [4] addresses T2, Histone deacetylase 1. Nature of the test: Inhibition of HDAC1 (unknown origin).
Test [5] deals with Histone deacetylase 3 (Homo sapiens, UniProt O15379).
Test [6] concerns the target T3, Polyamine deacetylase HDAC10 (Homo sapiens, UniProt Q969S8).
T3 sequence (Q969S8 whole entry): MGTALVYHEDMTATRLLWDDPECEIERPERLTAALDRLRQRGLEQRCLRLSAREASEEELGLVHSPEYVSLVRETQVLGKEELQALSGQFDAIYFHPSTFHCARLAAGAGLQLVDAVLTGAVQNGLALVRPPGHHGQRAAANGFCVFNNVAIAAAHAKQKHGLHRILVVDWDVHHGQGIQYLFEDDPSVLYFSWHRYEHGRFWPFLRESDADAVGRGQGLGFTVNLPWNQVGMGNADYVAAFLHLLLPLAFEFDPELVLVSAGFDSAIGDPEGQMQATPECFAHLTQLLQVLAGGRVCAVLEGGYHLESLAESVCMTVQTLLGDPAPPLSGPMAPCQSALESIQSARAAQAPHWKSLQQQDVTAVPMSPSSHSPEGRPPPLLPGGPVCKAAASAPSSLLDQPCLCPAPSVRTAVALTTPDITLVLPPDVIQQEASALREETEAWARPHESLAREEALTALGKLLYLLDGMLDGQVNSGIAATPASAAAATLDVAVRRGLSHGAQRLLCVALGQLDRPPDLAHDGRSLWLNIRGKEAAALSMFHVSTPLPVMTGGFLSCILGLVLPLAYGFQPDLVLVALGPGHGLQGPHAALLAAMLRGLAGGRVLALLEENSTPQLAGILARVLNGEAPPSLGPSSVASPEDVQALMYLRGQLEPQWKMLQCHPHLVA
Briefly: Inhibition of human recombinant HDAC10 using fluorescent peptide p53 (379 to 382 residues) RHKK(Ac) as substrate by fluorescence based analysis.

In test [7] the target is Histone deacetylase 2 (Homo sapiens, UniProt Q92769). Briefly: Inhibition of human recombinant HDAC2 using fluorescent peptide p53 (379 to 382 residues) RHKK(Ac) as substrate by fluorescence based analysis.
Test [8] addresses T1, Protein deacetylase HDAC6. Briefly: Inhibition of human recombinant HDAC6 using fluorescent peptide p53 (379 to 382 residues) RHKK(Ac) as substrate by fluorescence based analysis.

T2 sequence (Q13547 whole entry): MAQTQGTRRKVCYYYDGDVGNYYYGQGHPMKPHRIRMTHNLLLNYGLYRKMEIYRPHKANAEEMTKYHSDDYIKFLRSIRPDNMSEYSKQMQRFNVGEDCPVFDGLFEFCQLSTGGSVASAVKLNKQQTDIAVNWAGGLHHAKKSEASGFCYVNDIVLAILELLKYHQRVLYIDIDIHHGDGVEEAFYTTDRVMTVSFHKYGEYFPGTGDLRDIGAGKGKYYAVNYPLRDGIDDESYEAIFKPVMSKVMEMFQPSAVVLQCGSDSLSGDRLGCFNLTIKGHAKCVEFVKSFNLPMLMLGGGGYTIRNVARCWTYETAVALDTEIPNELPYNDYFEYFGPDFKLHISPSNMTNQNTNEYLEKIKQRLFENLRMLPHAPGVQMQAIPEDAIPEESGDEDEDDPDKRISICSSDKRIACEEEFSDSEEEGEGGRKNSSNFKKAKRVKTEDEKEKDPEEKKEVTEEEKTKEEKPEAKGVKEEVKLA
Chain of Histone deacetylase 2 (Q92769 whole entry, the tested form may be a part): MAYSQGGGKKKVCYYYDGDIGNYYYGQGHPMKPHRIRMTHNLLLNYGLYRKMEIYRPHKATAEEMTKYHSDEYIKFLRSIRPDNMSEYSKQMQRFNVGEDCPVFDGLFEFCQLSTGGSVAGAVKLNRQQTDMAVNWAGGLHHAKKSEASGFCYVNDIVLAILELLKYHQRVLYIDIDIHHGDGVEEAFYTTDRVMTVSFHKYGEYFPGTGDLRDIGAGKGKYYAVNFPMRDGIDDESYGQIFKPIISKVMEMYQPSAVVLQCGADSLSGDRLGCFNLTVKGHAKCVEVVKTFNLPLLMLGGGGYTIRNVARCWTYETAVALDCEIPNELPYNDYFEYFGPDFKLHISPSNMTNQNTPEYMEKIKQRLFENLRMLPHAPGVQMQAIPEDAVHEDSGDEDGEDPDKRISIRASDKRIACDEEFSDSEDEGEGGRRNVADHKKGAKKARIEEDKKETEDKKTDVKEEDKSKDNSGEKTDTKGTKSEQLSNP
Chain of Histone deacetylase 3 (O15379 whole entry): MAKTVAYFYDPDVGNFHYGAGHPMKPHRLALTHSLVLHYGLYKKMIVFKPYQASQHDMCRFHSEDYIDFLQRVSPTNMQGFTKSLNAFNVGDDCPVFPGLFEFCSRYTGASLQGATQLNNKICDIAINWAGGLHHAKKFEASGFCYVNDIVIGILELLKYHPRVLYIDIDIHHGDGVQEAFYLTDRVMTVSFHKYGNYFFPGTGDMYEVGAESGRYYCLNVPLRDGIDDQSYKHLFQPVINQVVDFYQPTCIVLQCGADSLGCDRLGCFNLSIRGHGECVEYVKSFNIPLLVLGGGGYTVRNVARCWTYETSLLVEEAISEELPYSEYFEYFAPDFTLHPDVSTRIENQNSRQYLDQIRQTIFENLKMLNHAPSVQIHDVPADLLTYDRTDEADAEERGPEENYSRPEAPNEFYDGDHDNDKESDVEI

As usually defined, the IC50 is the concentration at which inhibition is half-maximal. On to `CN1CCN(CC2C(=O)c3c(n(Cc4ccc(C(=O)NO)cc4)c4ccc(F)cc34)CC2(C)C)CC1` (stereo not drawn), for which, in test [1], the Ratio IC50 was determined as 182. The IC50 in test [2] was found to be 2 nM. For the compound `CC1(C)CC(=O)c2c(n(Cc3ccc(C(=O)NO)cc3)c3ccccc23)C1`, the IC50 in test [3] was determined as 4140 nM; in test [2] it was 12 nM. Also, the Ratio IC50 in test [1] came out at 345. With `O=C(NO)c1ccc(Cn2c3c(c4cc(F)ccc42)C(=O)CCC3)cc1`, the Ratio IC50 in test [1] turned out to be 328. In the case of `Cc1cn(Cc2ccc(C(=O)NO)cc2)c2c1C(=O)CC(C)(C)C2`, in test [1], the Ratio IC50 is 380. In test [2], the half-maximal inhibitory concentration (IC50) worked out at 8 nM. `CC1CN(CC2CCc3c(c4ccccc4n3Cc3ccc(C(=O)NO)cc3)C2=O)CC(C)O1` (stereo not drawn): the IC50 in test [3] was determined as 870 nM; in test [2] it was 11 nM. The Ratio IC50 in test [1] amounted to 79.1.

As to `CC1(C)Cc2c(c3cc(F)ccc3n2Cc2ccc(C(=O)NO)cc2)C(=O)C1CN1CCOCC1` (stereo not drawn), the Ratio IC50 in test [1] was found to be 41.4.

As to `CCN1CCN(CC2CCc3c(c4ccccc4n3Cc3ccc(C(=O)NO)cc3)C2=O)CC1` (stereo not drawn), the Ratio IC50 in test [1] came out at 329. Besides, the IC50 in test [2] amounted to 14 nM. In the case of `CC1(C)Cc2c(c3ccccc3n2Cc2ccc(C(=O)NO)cc2)C(=O)C1CN1CCOCC1` (stereo not drawn), the Ratio IC50 in test [1] was 153. Consider `CCN1CCN(CC2CCc3c(c4cc(F)ccc4n3Cc3ccc(C(=O)NO)cc3)C2=O)CC1` (stereo not drawn), for which the Ratio IC50 in test [1] stood at 202. The IC50 in test [2] was determined as 11 nM. The matching figures for `Cc1c2c(n(Cc3ccc(C(=O)NO)cc3)c1C)CC(C)(C)CC2=O`: 464 and 11 nM.

Regarding `CC(C)(C)OC(=O)N1CCN(CC2CCc3c(c4ccccc4n3Cc3ccc(C(=O)NO)cc3)C2=O)CC1` (stereo not drawn), the Ratio IC50 in test [1] was 327. In the case of `CN1CCN(CC2CCc3c(c4ccccc4n3Cc3ccc(C(=O)NO)cc3)C2=O)CC1` (stereo not drawn), in test [1], the Ratio IC50 was 345. Besides, the IC50 in test [2] is 12 nM. For `Cc1nccn1CC1C(=O)c2c(n(Cc3ccc(C(=O)NO)cc3)c3ccccc23)CC1(C)C` (stereo not drawn) the same measures were 166 and 35 nM. Take `CC1(C)CC(=O)c2c(n(Cc3ccc(C(=O)NO)cc3)c3ccc(Br)cc23)C1`: in test [1], the Ratio IC50 was 42.4. For the compound `O=C(NO)c1ccc(Cn2c3c(c4ccccc42)CCCC3)cc1`, 10900 nM corresponded to half-maximal inhibition in test [4] (IC50). Regarding `CC(C)(C)OC(=O)N1CCN(CC2CCc3c(c4cc(F)ccc4n3Cc3ccc(C(=O)NO)cc3)C2=O)CC1` (stereo not drawn), in test [1], the Ratio IC50 was determined as 311. For the compound `Cc1c2c(n(Cc3ccc(C(=O)NO)cc3)c1C)CCCC2=O`, in test [1], the Ratio IC50 was 705. Also, the IC50 in test [2] is 4 nM. For `O=C(NO)c1ccc(Cn2c3c(c4ccccc42)C(=O)C(CN2CCN(c4ccc(F)cc4)CC2)CC3)cc1` (stereo not drawn) the same measures were 661 and 8 nM. The matching figures for `O=C(NO)c1ccc(Cn2c3c(c4ccccc42)C(=O)C(CN2CCCCC2)CC3)cc1` (stereo not drawn): 284 and 12 nM.

In the case of `CCCCN1CCN(CC2CCc3c(c4cc(F)ccc4n3Cc3ccc(C(=O)NO)cc3)C2=O)CC1` (stereo not drawn), in test [1], the Ratio IC50 worked out at 373. For the same compound, the IC50 in test [2] is 6 nM. Consider `CN1CCN(CC2CCc3c(c4cc(F)ccc4n3Cc3ccc(C(=O)NO)cc3)C2=O)CC1` (stereo not drawn), for which the Ratio IC50 in test [1] was 530. The IC50 is 5 nM in test [2]; > 20000 nM in test [5]; > 20000 nM in test [6]; > 20000 nM in test [7]; 4 nM in test [8]. `Cc1nccn1CC1CCc2c(c3cc(F)ccc3n2Cc2ccc(C(=O)NO)cc2)C1=O` (stereo not drawn): the Ratio IC50 in test [1] is 570. Also, the IC50 in test [2] was found to be 9 nM. `CC(C)N1CCN(CC2CCc3c(c4cc(F)ccc4n3Cc3ccc(C(=O)NO)cc3)C2=O)CC1` (stereo not drawn): the Ratio IC50 in test [1] was determined as 50.2. Regarding `Cc1cn(Cc2ccc(C(=O)NO)cc2)c2c1C(=O)CCC2`, the IC50 in test [3] is 1130 nM; in test [2] it was 2 nM. Besides, in test [1], the Ratio IC50 was 543. With `Cc1nn(Cc2ccc(C(=O)NO)cc2)c2c1C(=O)CC(C)(C)C2`, in test [1], the Ratio IC50 turned out to be 135. Also, the IC50 in test [2] amounted to 12 nM.

With `O=C(NO)c1ccc(Cn2c3c(c4cc(F)ccc42)C(=O)C(CN2CCOCC2)CC3)cc1` (stereo not drawn), in test [1], the Ratio IC50 was 828. Besides, the concentration for half-maximal inhibition (IC50) in test [2] is 5 nM. The matching figures for `Cc1ccc(N2CCN(CC3CCc4c(c5ccccc5n4Cc4ccc(C(=O)NO)cc4)C3=O)CC2)cc1C` (stereo not drawn): 203 and 40 nM.
